From PMC6219668 (Oncotarget, 2018)

Tested on: panel of nearly 500 cancer cell lines
Experiment: Cancer Cell Line Encyclopedia profiling, 3-day CellTiter-Glo
Assay type: cell-based
Settings: Homo sapiens

CN(C)C(=O)c1cc2cnc(Nc3ccc(N4CCNCC4)cn3)nc2n1C1CCCC1 [Ribociclib, 7-cyclopentyl-2-(5-piperazin-1-yl-pyridin-2-ylamino)-7H-pyrrolo[2,3-d]pyrimidine-6-carboxylic acid dimethylamide]
1.07 µM: IC50 (NUGC-4)
0.951 µM: EC50 (RPMI 8402)
0.351 µM: EC50 (NCI-H1693)
0.187 µM: EC50 (OCI-AML-5)
7.74 µM: IC50 (SK-N-SH)
0.3 µM: EC50 (NCI-H2452)
0.323 µM: EC50 (SF-295)
0.324 µM: EC50 (SW1573)
3.73 µM: IC50 (NCI-H2122) | IC50 (SU-DHL-8)
0.212 µM: EC50 (NUGC-4)
3.74 µM: IC50 (P12-Ichikawa)
0.385 µM: EC50 (SW900)
0.506 µM: EC50 (NCI-H2286)
1.95 µM: EC50 (SCaBER)
2.3 µM: EC50 (SBC-5)
0.88 µM: EC50 (SK-N-DZ)
0.0436 µM: EC50 (SK-ES1)
1.26 µM: EC50 (SK-LMS-1)
2.76 µM: EC50 (SK-CO-1)
0.593 µM: EC50 (SW1990)
1.6 µM: EC50 (SU-DHL-8)
0.742 µM: EC50 (SU-DHL-6)
0.838 µM: EC50 (OCI-AML2)
1.11 µM: EC50 (NCI-H1703)
0.807 µM: EC50 (RPMI-7951)
0.45 µM: EC50 (SW-620)
5.26 µM: EC50 (SK-MES-1)
1.05 µM: EC50 (NCI-H1975)
0.338 µM: EC50 (NCI-H2087)
0.545 µM: EC50 (RT-112)
4.34 µM: IC50 (SW-403)
2.4 µM: EC50 (SNU1)
1.54 µM: IC50 (RPMI 8402)
1.8 µM: IC50 (SKNBE2)
0.329 µM: EC50 (SU-DHL-4)
0.0796 µM: EC50 (SIG-M5)
0.569 µM: EC50 (SNU-398)
3.44 µM: IC50 (SK-N-DZ)
0.457 µM: EC50 (SK-N-AS)
6.21 µM: EC50 (SW480)
0.373 µM: EC50 (SK-HEP1)
0.159 µM: EC50 (SW780)
0.22 µM: IC50 (SIG-M5)
1.18 µM: EC50 (SJSA-1)
0.0694 µM: EC50 (OV-90)
1.16 µM: IC50 (OCI-AML2)
> 8 µM: IC50 (NCI-H1666) | IC50 (NCI-H1693) | EC50 (NCI-H1694) | IC50 (NCI-H1694) | IC50 (NCI-H1703) | EC50 (NCI-H1792) | IC50 (NCI-H1792) | IC50 (NCI-H1793) | IC50 (NCI-H1944) | IC50 (NCI-H1975) | EC50 (NCI-H2009) | IC50 (NCI-H2009) | IC50 (NCI-H2030) | IC50 (NCI-H2052) | IC50 (NCI-H2087) | EC50 (NCI-H2122) | EC50 (NCI-H2170) | IC50 (NCI-H2170) | EC50 (NCI-H2228) | IC50 (NCI-H2228) | IC50 (NCI-H2286) | EC50 (NCI-H2444) | IC50 (NCI-H2444) | IC50 (NCI-H2452) | EC50 (NCI-H3255) | IC50 (NCI-H3255) | EC50 (NCI-N87) | IC50 (NCI-N87) | EC50 (NUGC-3) | IC50 (NUGC-3) | EC50 (OC-314) | IC50 (OC-314) | IC50 (OCI-AML-5) | EC50 (OCI-Ly10) | IC50 (OCI-Ly10) | EC50 (OE33) | IC50 (OE33) | IC50 (OV-90) | EC50 (OVCAR-3) | IC50 (OVCAR-3) | EC50 (OVCAR-4) | IC50 (OVCAR-4) | EC50 (OVCAR-8) | IC50 (OVCAR-8) | EC50 (OVSAHO) | IC50 (OVSAHO) | EC50 (P3HR-1) | IC50 (P3HR-1) | EC50 (P31-FUJ) | IC50 (P31-FUJ) | EC50 (PANC-03-27) | IC50 (PANC-03-27) | IC50 (PC-14) | EC50 (PLC-PRF-5) | IC50 (PLC-PRF-5) | IC50 (PSN1) | EC50 (Panc 02.03) | IC50 (Panc 02.03) | EC50 (Panc 04.03) | IC50 (Panc 04.03) | EC50 (Panc1005) | IC50 (Panc1005) | EC50 (Pfeiffer) | IC50 (Pfeiffer) | IC50 (RL95-2) | IC50 (RPMI-7951) | IC50 (RT-112) | EC50 (RVH-421) | IC50 (RVH-421) | EC50 (Raji) | IC50 (Raji) | EC50 (SAOS-2) | IC50 (SAOS-2) | IC50 (SBC-5) | IC50 (SCC-9) | IC50 (SCaBER) | EC50 (SF-126) | IC50 (SF-126) | IC50 (SF-295) | EC50 (SHP77) | IC50 (SHP77) | EC50 (SJRH30) | IC50 (SJRH30) | IC50 (SJSA-1) | EC50 (SK-BR-3) | IC50 (SK-BR-3) | IC50 (SK-CO-1) | IC50 (SK-ES1) | IC50 (SK-HEP1) | IC50 (SK-LMS-1) | IC50 (SK-LU-1) | EC50 (SK-MEL-2) | IC50 (SK-MEL-2) | IC50 (SK-MEL-5) | EC50 (SK-MEL-24) | IC50 (SK-MEL-24) | EC50 (SK-MEL-30) | IC50 (SK-MEL-30) | EC50 (SK-MM-2) | IC50 (SK-MM-2) | IC50 (SK-N-AS) | EC50 (SK-N-SH) | EC50 (SK-OV-3) | IC50 (SK-OV-3) | IC50 (SNU1) | EC50 (SNU-16) | IC50 (SNU-16) | EC50 (SNU-182) | IC50 (SNU-182) | EC50 (SNU-387) | IC50 (SNU-387) | IC50 (SNU-398) | EC50 (SNU-423) | IC50 (SNU-423) | EC50 (SNU-449) | IC50 (SNU-449) | EC50 (SNU-475) | IC50 (SNU-475) | EC50 (SNU-C2B) | IC50 (SNU-C2B) | IC50 (SU-DHL-6) | EC50 (SU.86.86) | IC50 (SU.86.86) | EC50 (SUP-T1) | IC50 (SUP-T1) | IC50 (SW48) | IC50 (SW480) | IC50 (SW780) | IC50 (SW900) | EC50 (SW1088) | IC50 (SW1088) | EC50 (SW1353) | IC50 (SW1353) | EC50 (SW1417) | IC50 (SW1417) | IC50 (SW1573) | IC50 (SW1990) | EC50 (SW-403) | IC50 (SW-620) | EC50 (T47D) | IC50 (T47D) | EC50 (T98G) | IC50 (T98G)
0.328 µM: EC50 (SKNBE2)
0.00418 µM: EC50 (NCI-H1793)
0.0194 µM: EC50 (SW48)
1.29 µM: EC50 (NCI-H2030)
5.27 µM: IC50 (SK-MES-1)
3.35 µM: EC50 (RL95-2)
5.75 µM: EC50 (SU-DHL10) | IC50 (SU-DHL10)
0.00254 µM: EC50 (SCC-9)
0.0207 µM: EC50 (NCI-H2052)
0.797 µM: EC50 (P12-Ichikawa)
2.5 µM: EC50 (NCI-H1944)
4.03 µM: EC50 (PC-14)
0.682 µM: EC50 (SK-LU-1)
2.03 µM: EC50 (PSN1)
